Results from US20260048064A1, “AMORPHOUS SOLID DISPERSIONS COMPRISING NAPORAFENIB” (Novartis AG, priority 2022, published 2026).
Converted amounts (≈) assume the structure as drawn. Where a name gives a salt, the structure may show the parent alone.

Assays:
Assay type in all cases: physicochemical
[1] = Bulk stability at 80° C./75% RH, 1 week (Table 1A)
Procedure: (§1) Several physical forms of Compound A were analyzed: the free base, tartrate salt, and tosylate salt.

[2] = Light stability, 1.2 MLux h (Table 1A)
Procedure: as §1

[3] = Stability in aqueous solutions (Table 1A)
Procedure: as §1

Polymorphism (Table 1A) = test: Polymorphism (Table 1A)
Procedure: as §1

[4] = Solubility at 25° C. in SGF, FaSSIF, FeSSIF (Table 1A)
Procedure: as §1

[5] = Hygroscopicity (Table 1A)
Procedure: as §1

[6] = Photostability under light stress (Table 1C); settings: RT, light dose 1.2 Lux·h*10^6
Excerpt: The photostability of crystalline hydrate and crystalline tosylate forms of Compound A under photo, or light stress is provided in Table 1C.

[7] = Solubility at various pH and in biorelevant media (Table 1B)
Excerpt: Compound A has very limited solubility in all pHs.

[8] = Stability in solution/suspension at pH 1, 4.5, 7.4 under heat (Table 1E); settings: 5 days
[9] = Bulk solid stability under thermal stress (Table 1D); settings: 5 days

## Cc1ccc(NC(=O)c2ccnc(C(F)(F)F)c2)cc1-c1cc(OCCO)nc(N2CCOCC2)c1 [Compound A (tartrate salt), N-(3-(2-(2-hydroxyethoxy)-6-morpholinopyridin-4-yl)-4-methylphenyl)-2-(trifluoromethyl)isonicotinamide]
[1]
  Bulk stability (degradation): week), significant
[2]
  Light stability (1.2 MLux h): Significant degradation
[3]; pH 1.2 and pH 10.0
  Stability in aqueous solutions: Significant degradation
[3]; pH 2.9 to 6.8
  Stability in aqueous solutions: Relatively stable at pH
Polymorphism (Table 1A)
  Polymorphism: Potential issue
[4]; FaSSIF
  Solubility at 25° C.: 0.6 µg/mL
  pH final of solubility test: 3.54
[4]; FeSSIF
  Solubility at 25° C.: 109.2 µg/mL
  pH final of solubility test: 4.93
[4]; SGF
  Solubility at 25° C.: 53.5 µg/mL
  pH final of solubility test: 1.89
[5]
  Hygroscopicity: High

## Cc1ccc(NC(=O)c2ccnc(C(F)(F)F)c2)cc1-c1cc(OCCO)nc(N2CCOCC2)c1 [Compound A (hydrate), N-(3-(2-(2-hydroxyethoxy)-6-morpholinopyridin-4-yl)-4-methylphenyl)-2-(trifluoromethyl)isonicotinamide]
[6]; Bulk
  Appearance/XRPD/DSC: No change
  Degradation Products [%] (HPLC): <1.0%
[6]; Ethanol
  Degradation Products [%] (HPLC): 18%
[7]; FaSSIF V2
  Solubility: 4 µg/mL
  pH final of solubility test: 6.44
[7]; FeSSIF V2
  Solubility: 47 µg/mL
  pH final of solubility test: 5.6
[7]; SGF pH 2.0
  Solubility: 25 µg/mL
  pH final of solubility test: 2.19
[7]; Water
  Solubility: 1 µg/mL
  pH final of solubility test: 5.99
[7]; pH 1
  Solubility: 170 µg/mL
  pH final of solubility test: 1.23
[7]; pH 4.5
  Solubility: 1 µg/mL
  pH final of solubility test: 4.0
[7]; pH 7.0
  Solubility: 0.8 µg/mL
  pH final of solubility test: 7.0

## Cc1ccc(NC(=O)c2ccnc(C(F)(F)F)c2)cc1-c1cc(OCCO)nc(N2CCOCC2)c1 [Compound A (free base), N-(3-(2-(2-hydroxyethoxy)-6-morpholinopyridin-4-yl)-4-methylphenyl)-2-(trifluoromethyl)isonicotinamide]
[1]
  Bulk stability (degradation): week), slight
[2]
  Light stability (1.2 MLux h): Slight degradation
[3]; pH 1.2 and pH 10.0
  Stability in aqueous solutions: Significant degradation
[3]; pH 2.9 to 6.8
  Stability in aqueous solutions: Relatively stable at pH
Polymorphism (Table 1A)
  Polymorphism: Yes
[4]; FaSSIF
  Solubility at 25° C.: 1.4 µg/mL (≈ 2.79 µM)
  pH final of solubility test: 6.91
[4]; FeSSIF
  pH final of solubility test: 6.08
[4]; FeSSIF, 25 °C, thermodynamic from solid
  Solubility: 137 µg/mL (≈ 273 µM)
[4]; SGF
  Solubility at 25° C.: 2.1 µg/mL (≈ 4.18 µM)
  pH final of solubility test: 2.02
[5]
  Hygroscopicity: Low
[7]; FaSSIF V2
  Solubility: 35 µg/mL (≈ 69.7 µM)
  pH final of solubility test: 6.51
[7]; FeSSIF V2
  Solubility: 576 µg/mL (≈ 1150 µM)
  pH final of solubility test: 5.82
[7]; SGF pH 2.0
  Solubility: 699 µg/mL (≈ 1390 µM)
  pH final of solubility test: 1.86
[7]; Water
  Solubility: 2 µg/mL (≈ 3.98 µM)
  pH final of solubility test: 7.33
[7]; pH 1
  Solubility: 400 µg/mL (≈ 796 µM)
  pH final of solubility test: 1.07
[7]; pH 2
  Solubility: 140 µg/mL (≈ 279 µM)
  pH final of solubility test: 1.96
[7]; pH 4.5
  pH final of solubility test: 4.56
[7]; pH 4.5, aqueous buffer, thermodynamic from solid, pH 4.5, read-out: Solubility
  Solubility: 2 µg/mL (≈ 3.98 µM)
[7]; pH 7.4
  pH final of solubility test: 7.33
[7]; pH 7.4, aqueous buffer, thermodynamic from solid, pH 7.4, read-out: Solubility
  Solubility: 1 µg/mL (≈ 1.99 µM)

## Cc1ccc(NC(=O)c2ccnc(C(F)(F)F)c2)cc1-c1cc(OCCO)nc(N2CCOCC2)c1 [Compound A (tosylate salt), N-(3-(2-(2-hydroxyethoxy)-6-morpholinopyridin-4-yl)-4-methylphenyl)-2-(trifluoromethyl)isonicotinamide]
[1]
  Bulk stability (degradation): 75% RH (1 week), no
  Bulk stability (physical): Physically unstable at 80° C./
[6]; Bulk
  Appearance/XRPD/DSC: No change
  Degradation Products [%] (HPLC): <1.0%
[6]; Ethanol
  Degradation Products [%] (HPLC): 97%
[2]
  Light stability (1.2 MLux h): No degradation
[8]; pH 1, 50 ° C.
  Parent remaining [%] (HPLC): 23%
[8]; pH 1, 80 ° C.
  Parent remaining [%] (HPLC): 0.2%
[8]; pH 1, RT
  Parent remaining [%] (HPLC): 97%
[8]; pH 4.5, 50 ° C.
  Parent remaining [%] (HPLC): >99%
[8]; pH 4.5, 80 ° C.
  Parent remaining [%] (HPLC): 98.6%
[8]; pH 4.5, RT
  Parent remaining [%] (HPLC): >99%
[8]; pH 7.4, 50 ° C.
  Parent remaining [%] (HPLC): 97%
[8]; pH 7.4, 80 ° C.
  Parent remaining [%] (HPLC): 74%
[8]; pH 7.4, RT
  Parent remaining [%] (HPLC): >99%
Polymorphism (Table 1A)
  Polymorphism: No issue encountered
[4]; FaSSIF
  Solubility at 25° C.: 1.1 µg/mL
  pH final of solubility test: 6.66
[4]; FeSSIF
  Solubility at 25° C.: 115.8 µg/mL
  pH final of solubility test: 5.58
[4]; SGF
  Solubility at 25° C.: 10 µg/mL
  pH final of solubility test: 1.75
[9]; 50 ° C.
  Appearance/XRPD/DSC: No change
  Parent remaining [%] (HPLC): >99%
[9]; 80 ° C.
  Appearance/XRPD/DSC: No change
  Parent remaining [%] (HPLC): >99%
[9]; RT
  Appearance/XRPD/DSC: No change
  Parent remaining [%] (HPLC): >99%
[5]
  Hygroscopicity: Low
[7]; FaSSIF V2
  Solubility: 16 µg/mL
  pH final of solubility test: 6.07
[7]; FeSSIF V2
  Solubility: 51 µg/mL
  pH final of solubility test: 5.41
[7]; SGF pH 2.0
  Solubility: 29 µg/mL
  pH final of solubility test: 2.02
[7]; Water
  Solubility: 5140 µg/mL
  pH final of solubility test: 2.71
[7]; pH 1
  Solubility: 106 µg/mL
  pH final of solubility test: 1.23
[7]; pH 4.5
  Solubility: 2 µg/mL
  pH final of solubility test: 3.85
[7]; pH 7.0
  Solubility: 2 µg/mL
  pH final of solubility test: 6.83
